In the assay the target is T1, rat GPR14 (U-II receptor) (Rattus norvegicus, UniProt P49684).
T1 construct: expressed in transfected cells
T1 sequence (P49684 1-386): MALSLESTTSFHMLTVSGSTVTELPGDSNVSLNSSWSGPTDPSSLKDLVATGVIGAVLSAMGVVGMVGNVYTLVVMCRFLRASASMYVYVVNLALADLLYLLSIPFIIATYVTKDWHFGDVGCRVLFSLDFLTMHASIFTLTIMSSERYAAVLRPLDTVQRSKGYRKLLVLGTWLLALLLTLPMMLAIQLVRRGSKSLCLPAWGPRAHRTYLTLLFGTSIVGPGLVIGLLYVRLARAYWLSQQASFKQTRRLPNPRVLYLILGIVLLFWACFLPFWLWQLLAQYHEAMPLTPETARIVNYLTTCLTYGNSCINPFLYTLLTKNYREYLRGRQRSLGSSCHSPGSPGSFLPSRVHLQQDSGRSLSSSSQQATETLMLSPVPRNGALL
The assay can be described thus: Rat UII Calcium Mobilization FLIPR Assay. Conditions: for inhibition at 10 µM / inhibition at 50 µM: CHO, 5 min, agonist-induced Ca2+ mobilization (FLIPR), CHO cells with rat UII receptor; for inhibition at 10 µM: 10 μM compound, read-out: % I @ 10; for inhibition at 50 µM: 50 μM compound, read-out: % I @ 50; for IC50: Inhibition of Acetyl-cyclic[Cys-Phe-Trp-Lys-(2-Nal)-Cys]-NH2 induced Ca2+ mobilization (FLIPR) in CHO cells transfected with rat UII receptor, read-out: IC50. Type of assay: cell-based. The text has this:
To derive these cells, the complete coding sequence of rat U-II (Genbank Accession No. U32673) was amplified by nested PCR from rat heart marathon-Ready cDNA. […] The PCR products were cloned into pcDNA3 (Invitrogen) digested with EcoR I and Xba I. Clones containing rat U-II receptor were verified by complete sequencing of the U-II receptor insert to ensure a lack of PCR-introduced errors. The constructed vector was transfected into CHO cells by using lipofectamine (GIBCO BRL). CHO cells with high expression of rat U-II receptor were selected and established as stable cell lines by using G418. CHO cells were seeded at 25,000 cells per well into 96-well, black-wall, clear-bottom microtiter plates 24 h before assay. Cells in culture media (DMEM/F12 containing 15 mM HEPES, L-glutamine, pyridoxine hydrochloride; 10% fetal bovine serum; 1 mg/mL G418 sulfate; antibiotic-antimycotic; pH 7.4) were loaded with proprietary dye, from the FLIPR Calcium Assay Kit (Molecular Devices), prepared in assay buffer (Hanks Balanced Salts Solution, 20 mM HEPES, 0.1% BSA, 2.5 mM probenecid, pH 7.4), and incubated for 1 h at 37° C. Calcium mobilization determinations were performed at room temperature (23° C.).

Where “and” joins values, the source holds several entries; their conditions need not be identical. Identical values can stand only once.

As usually defined, the IC50 is the point on the concentration scale where inhibition reaches its midpoint.

Regarding `COc1ccc(CN2C(=O)c3c(Cl)ccc(N4CCN([C@H](C)c5ccccc5)CC4)c3C2=O)cc1OC` [Cpd 10, 4-chloro-2-(3,4-dimethoxy-benzyl)-7-[4-(1R)-(1-phenyl-ethyl)-piperazin-1-yl]-isoindole-1,3-dione], the inhibition at 10 µM turned out to be 100%, the inhibition at 50 µM is 106% and the IC50 was 0.21 µM.
The matching figures for `COc1cc2c(cc1OC)C(N1C(=O)c3cccc(N4CCN(Cc5ccccc5)CC4)c3C1=O)CC2` (stereo not drawn) [Cpd 11, 4-(4-benzyl-piperazin-1-yl)-2-(5,6-dimethoxy-indan-1-yl)-isoindole-1,3-dione]: 100%, 101% and 0.34 µM.
The matching figures for `COc1ccc(CN2C(=O)c3cccc(N4CCN([C@@H](C)c5ccccc5)CC4)c3C2=O)cc1OC` [Cpd 14, 2-(3,4-dimethoxy-benzyl)-4-[4-(1S)-(1-phenyl-ethyl)-piperazin-1-yl]-isoindole-1,3-dione]: 98%, 101% and 0.49 µM.
`COc1ccc(CN2C(=O)c3cccc(N4CCN(Cc5c(F)cccc5F)CC4)c3C2=O)cc1OC` [Cpd 16, 4-[4-(2,6-difluoro-benzyl)-piperazin-1-yl]-2-(3,4-dimethoxy-benzyl)-isoindole-1,3-dione]: the inhibition at 10 µM turned out to be 91%; the inhibition at 50 µM is 97%; the IC50 was 0.86 µM and 1.1 µM.
On to `COc1ccc(CN2C(=O)c3cccc(N4CCN(C5CCc6ccccc65)CC4)c3C2=O)cc1OC` (stereo not drawn) [Cpd 20, 2-(3,4-dimethoxy-benzyl)-4-(4-indan-1-yl-piperazin-1-yl)-isoindole-1,3-dione], for which the inhibition at 10 µM stood at 78%, the inhibition at 50 µM turned out to be 15% and the IC50 came to 1.5 µM.
In the same order, the values of `CCOc1cc(CN2C(=O)c3cccc(N4CCN([C@H](C)c5ccccc5)CC4)c3C2=O)ccc1OC` [Cpd 21, 2-(3-ethoxy-4-methoxy-benzyl)-4-[4-(1R)-(1-phenyl-ethyl)-piperazin-1-yl]-isoindole-1,3-dione] are 90%, 98% and 1.7 µM.
The matching figures for `COc1ccc(CN2C(=O)c3cccc(N4CCN(CCc5ccccc5)CC4)c3C2=O)cc1OC` [Cpd 22, 2-(3,4-dimethoxy-benzyl)-4-(4-phenethyl-piperazin-1-yl)-isoindole-1,3-dione]: 100%, 100% and 1.9 µM.
In the same order, the values of `Cc1nn(C)c(C)c1CN1C(=O)c2cccc(N3CCN(Cc4ccccc4)CC3)c2C1=O` [Cpd 23, 4-(4-benzyl-piperazin-1-yl)-2-(1,3,5-trimethyl-1H-pyrazol-4-ylmethyl)-isoindole-1,3-dione] are 62%, 101% and 1.9 µM.
In the case of `COc1ccc(CN2C(=O)c3cccc(N4CCN(Cc5ccc(F)cc5F)CC4)c3C2=O)cc1OC` [Cpd 24, 4-[4-(2,4-difluoro-benzyl)-piperazin-1-yl]-2-(3,4-dimethoxy-benzyl)-isoindole-1,3-dione], the inhibition at 10 µM is 96%, the inhibition at 50 µM turned out to be 100% and the IC50 turned out to be 2.1 µM.
In the same order, the values of `COc1ccc(CCN2C(=O)c3cccc(N4CC5CCC(C4)N5Cc4ccccc4)c3C2=O)cc1OC` [Cpd 25, 4-(8-benzyl-3,8-diaza-bicyclo[3.2.1]oct-3-yl)-2-[2-(3,4-dimethoxy-phenyl)-ethyl]-isoindole-1,3-dione] are 90%, 100% and 2.8 µM.
For the compound `COc1cc(CN2C(=O)c3cccc(N4CC5CCC(C4)N5Cc4ccccc4)c3C2=O)cc(OC)c1OC` [Cpd 26, 4-(8-benzyl-3,8-diaza-bicyclo[3.2.1]oct-3-yl)-2-(3,4,5-trimethoxy-benzyl)-isoindole-1,3-dione], the inhibition at 10 µM was 81%, the inhibition at 50 µM is 94% and the IC50 came to 3.4 µM.
Consider `COc1ccc(CN2C(=O)c3cccc(N4CCN(C(c5ccccc5)C5CC5)CC4)c3C2=O)cc1OC` (stereo not drawn) [Cpd 27, 4-[4-(cyclopropyl-phenyl-methyl)-piperazin-1-yl]-2-(3,4-dimethoxy-benzyl)-isoindole-1,3-dione], for which the inhibition at 10 µM is 78%, the inhibition at 50 µM was 100% and the 50% inhibitory concentration (IC50) came out at 3.8 µM.
Regarding `COc1ccc(CN2C(=O)c3cccc(N4CCN(Cc5cc(F)ccc5F)CC4)c3C2=O)cc1OC` [Cpd 29, 4-[4-(2,5-difluoro-benzyl)-piperazin-1-yl]-2-(3,4-dimethoxy-benzyl)-isoindole-1,3-dione], the inhibition at 10 µM turned out to be 77%, the inhibition at 50 µM was 95% and the IC50 was 4.4 µM.
In the same order, the values of `COc1ccc([C@H](CC(=O)O)N2C(=O)c3cccc(N4CCN([C@H](C)c5ccccc5)CC4)c3C2=O)cc1OC` [Cpd 30, (S)-3-(3,4-dimethoxy-phenyl)-3-{1,3-dioxo-4-[4-(1R)-(1-phenyl-ethyl)-piperazin-1-yl]-1,3-dihydro-isoindol-2-yl}-propionic acid] are 80%, 99% and 4.4 µM.
On to `COc1ccc(CN2C(=O)c3cccc(N4CCN(Cc5ccccc5Cl)CC4)c3C2=O)cc1OC` [Cpd 31, 4-[4-(2-chloro-benzyl)-piperazin-1-yl]-2-(3,4-dimethoxy-benzyl)-isoindole-1,3-dione], for which the inhibition at 10 µM is 65%, the inhibition at 50 µM came to 89% and the IC50 came to 4.5 µM.
The matching figures for `COc1ccc(CN2C(=O)c3cccc(N4CC5CCC(C4)N5C(C)c4ccccc4)c3C2=O)cc1OC` (stereo not drawn) [Cpd 32, 2-(3,4-dimethoxy-benzyl)-4-[8-(1-phenyl-ethyl)-3,8-diaza-bicyclo[3.2.1]oct-3-yl]-isoindole-1,3-dione]: 73%, 93% and 4.9 µM.
In the same order, the values of `COc1ccc(CN2C(=O)c3cccc(N4CCN(Cc5ccccc5C)CC4)c3C2=O)cc1OC` [Cpd 33, 2-(3,4-dimethoxy-benzyl)-4-[4-(2-methyl-benzyl)-piperazin-1-yl]-isoindole-1,3-dione] are 60%, 97% and 5 µM.
The matching figures for `COc1cc(CN2C(=O)c3cccc(N4CCN(Cc5ccccc5)CC4)c3C2=O)cc(OC)c1OC` [Cpd 34, 4-(4-benzyl-piperazin-1-yl)-2-(3,4,5-trimethoxy-benzyl)-isoindole-1,3-dione]: 64%, 94% and 5.9 µM.
For the compound `C#CC(c1ccccc1)N1CCN(c2cccc3c2C(=O)N(Cc2ccc(OC)c(OC)c2)C3=O)CC1` (stereo not drawn) [Cpd 35, 2-(3,4-dimethoxy-benzyl)-4-[4-(1-phenyl-prop-2-ynyl)-piperazin-1-yl]-isoindole-1,3-dione], the inhibition at 10 µM was 55%, the inhibition at 50 µM stood at 65% and the half-maximal inhibitory concentration (IC50) worked out at 6.3 µM.
The matching figures for `COc1ccc(CN2C(=O)c3cccc(N4CCN(Cc5cccc(C)c5)CC4)c3C2=O)cc1OC` [Cpd 36, 2-(3,4-dimethoxy-benzyl)-4-[4-(3-methyl-benzyl)-piperazin-1-yl]-isoindole-1,3-dione]: 63%, 82% and 6.5 µM.
The matching figures for `COc1ccc(CN2C(=O)c3cccc(N[C@@H]4CCCC[C@H]4NCc4ccccc4)c3C2=O)cc1OC` [Cpd 37, 4-(1R,2R)-(2-benzylamino-cyclohexylamino)-2-(3,4-dimethoxy-benzyl)-isoindole-1,3-dione]: 62%, 71% and 6.9 µM.
In the same order, the values of `COc1ccc(CN2C(=O)c3cccc(N4CCN(Cc5ccccc5C#N)CC4)c3C2=O)cc1OC` [Cpd 38, 2-{4-[2-(3,4-dimethoxy-benzyl)-1,3-dioxo-2,3-dihydro-1H-isoindol-4-yl]-piperazin-1-ylmethyl}-benzonitrile] are 56%, 94% and 7.6 µM.
For the compound `O=C1c2cccc(N3CC4CCC(C3)N4Cc3ccccc3)c2C(=O)N1Cc1ccncc1` [Cpd 39, 4-(8-benzyl-3,8-diaza-bicyclo[3.2.1]oct-3-yl)-2-pyridin-4-ylmethyl-isoindole-1,3-dione], the inhibition at 10 µM stood at 47%, the inhibition at 50 µM was 101% and the IC50 was found to be 8.9 µM.

The values are drawn from patent US8193191B2, “Urotensin II receptor antagonists” (Janssen Pharmaceutica N.V., priority 2006, dated 2012).
